Laboratory results taken from patent US20250073138A1, “Lipid-based nanoparticles for enhancing percutaneous absorption and manufacturing method thereof” (COSMECCA KOREA CO., LTD., priority 2023, published 2025).

Tested on: HaCaT, a human keratinocyte cell line
Assay: Live/dead fluorescence staining cytotoxicity
Type: cell-based
Conditions: treated at different concentrations for 24 h, calcein-AM / ethidium homodimer
Method: First, HaCaT, a human keratinocyte cell line, was treated with tannic acid, TAMA, and TAMA-introduced nanoparticles (TANV) at different concentrations for 24 h. Thereafter, calcein-acetoxymethyl ester (calcein-AM), which stains viable cells, and ethidium homodimer, which stains dead cells, were treated simultaneously, and then washed twice with the PBS buffer solution to obtain images of viable and dead cells through fluorescence microscopy.

Compound: O=C(OC[C@H]1O[C@@H](OC(=O)c2cc(O)c(O)c(OC(=O)c3cc(O)c(O)c(O)c3)c2)[C@H](OC(=O)c2cc(O)c(O)c(OC(=O)c3cc(O)c(O)c(O)c3)c2)[C@@H](OC(=O)c2cc(O)c(O)c(OC(=O)c3cc(O)c(O)c(O)c3)c2)[C@@H]1OC(=O)c1cc(O)c(O)c(OC(=O)c2cc(O)c(O)c(O)c2)c1)c1cc(O)c(O)c(OC(=O)c2cc(O)c(O)c(O)c2)c1 [tannic acid]
- cytotoxicity (live/dead assay): cytotoxicity and death occurred significantly

Compound: tannic acid-maleimide [TAMA]
- cytotoxicity (live/dead assay): a slight level of cytotoxicity
